Data from US11395828B2, “Spironolactone aqueous compositions” (CMP DEVELOPMENT LLC, priority 2015, dated 2022).
Values after ≈ are worked out from the molar mass of the structure shown.

Key:
[1] = Particle size by laser diffraction; type: physicochemical; conditions: spironolactone solid prior to composition manufacture
Method: Particle size measurements were performed on spironolactone (prior to composition manufacture) and on the particulate matter present in the compositions described herein by laser diffraction. The reported particle sizes D(v, 0.1), D(v, 0.5), and D(v, 0.9) relate to the mass median diameter (in μm) of the volume of distribution of the given particles. […] Alternatively, particle size can be estimated using optical microscopy.

Dissolution, USP <711> = type: physicochemical; conditions: USP <711> dissolution study
Method: Dissolution was measured in a manner consistent with USP <711> reporting the amount of dissolved spironolactone as a percent of labeled content with an associated relative standard devision (“RSD”).

[2] = sorbic acid and sorbate; cited from earlier work
[3] = added to a standard therapy for adults with severe heart failure; cited from earlier work
[4] = reported in Pramar et al.; cited from earlier work
[5] = Pramar et al.; cited from earlier work

Structure (SMILES)	particle size D(v, 0.5) [1]	particle size D(v, 0.9) [1]	labeled content dissolved at 5-minutes (Dissolution, USP <711>)	other results
CC(=O)S[C@@H]1CC2=CC(=O)CC[C@]2(C)[C@H]2CC[C@@]3(C)[C@@H](CC[C@@]34CCC(=O)O4)[C@H]12 [micronized spironolactone, spironolactone]	about 3.64 m	about 9.42 m	about 90 % of labeled content	
C/C=C/C=C/C(=O)O [sorbic acid]				equilibrium pKa-value [2]: about 4.8
CC(=O)S[C@@H]1CC2=CC(=O)CC[C@]2(C)[C@H]2CC[C@@]3(C)[C@@H](CC[C@@]34CCC(=O)O4)[C@H]12 [Spironolactone]				reduction in mortality [3]: 30%; aqueous solubility [4]: 28 µg/mL (≈ 67.2 µM); pH at which spironolactone exhibits maximum stability [5]: 4.5
CC(=O)S[C@@H]1CC2=CC(=O)CC[C@]2(C)[C@H]2CC[C@@]3(C)[C@@H](CC[C@@]34CCC(=O)O4)[C@H]12 [unmicronized spironolactone, spironolactone]	18.3 µm	35.5 µm	about 50 % of labeled content	particle size D(v, 0.1) [1]: 7.47 µm
